Patent US20230150960A1, “COMPOSITIONS AND METHODS OF USING CYANINE DYES TO TARGET CANCER AND MITOCHONDRIA” (Thomas Jefferson University, priority 2020, published 2023)
Entries after “also recorded” stand apart in the source; their conditions may differ. Each block holds one compound with its values, some of them ahead of it.

Key:
ASPC1 cancer cells = assay: Combination of JAC-B2 with another drug, cell survival by Pico Green, BLISS/HSA plot analyses; type: cell-based; settings: combined with PDDX04, 5 days, FIG. 7P
Excerpt: (§1) We analyzed cell survival using Pico Green and determined the combinational effects through BLISS/HSA plot analyses.

HT29 cancer cells = assay: as above; type: cell-based; settings: combined with Cobimetinib, 5 days, FIG. 7O
Excerpt: as §1

MIA-PaCa2 cancer cells = assay: Combination of JAC-B2 or JAC-R2 with another drug, cell survival by Pico Green, BLISS/HSA plot analyses; type: cell-based
Procedure: as §1
MIA-PaCa2 pancreatic cancer cells were purchased from the American Type Culture Collection (ATCC, Manassas, VA, USA) and grown in normal culture media (DMEM media, 10% FBS, 1% L-glutamine, 1% Penicillin-Streptomycin) at normal conditions (37° C., 5% CO2). Cells were trypsinized and plated at 1 thousand cells per well and in 96-well plates. […] Cell viability was assessed using pico-green dsDNA measurement and IC50S were calculated using GraphPad® (GraphPad Software, San Diego, CA, USA) by employing normalized nonlinear regression models. A summary of the combined efficacy of a compound of Formula I and an additional therapeutic agent is show in Table 2.

[1] = Solubility of glycerol-containing formulations (post vortexing, 30 min and overnight at 18° C.); type: physicochemical; settings: glycerol-containing formulation, compound 2 mg/mL; for solubility at 30 min / solubility: 18 °C; for solubility at 30 min: after 30 minutes incubation at 18° C.; for solubility: overnight incubation at 18° C.; for solubility at 30 s: post vortexing
Procedure: Tables 3A, 3B, and 3C describe solubility experiments conducted with the indicated compounds under the listed conditions. Vortexing was conducted using a Denville Vortexer 59 (Denville Scientific Inc.), at maximum speed for 30 seconds. As used herein, the term overnight refers to a period lasting at least about 12-24 hours.

[2] = Solubility of BSA-containing formulations (post vortexing, 30 min and overnight at 18° C.); type: physicochemical; settings: BSA-containing formulation, aqueous with cosolvent or surfactant or cyclodextrin, compound 2 mg/mL; for solubility at 30 min / solubility: 18 °C; for solubility at 30 min: after 30 minutes incubation at 18° C.; for solubility: overnight incubation at 18° C.; for solubility at 30 s: post vortexing
Procedure: Vortexing was conducted using a Denville Vortexer 59 (Denville Scientific Inc.), at maximum speed for 30 seconds. As used herein, the term overnight refers to a period lasting at least about 12-24 hours.

[3] = combined with Azacitidine, 5 days, MIA-PaCa2, FIG. 7J (JAC-B2), FIG. 7L (JAC-R2)
[4] = combined with Decitabine, 5 days, MIA-PaCa2, FIG. 7I (JAC-B2), FIG. 7K (JAC-R2)
[5] = combined with Paclitaxel, 5 days, FIG. 7F (JAC-B2), FIG. 7M (JAC-R2)

SMILES: CCN1/C(=C/C=C/C=C/c2sc3ccccc3[n+]2CC)Sc2ccccc21 [JAC-B2, Dithiazanine Iodide]
Effect of combination (ASPC1 cancer cells): Synergistic
Effect of combination (HT29 cancer cells): Synergistic
Effect of combination (MIA-PaCa2 cancer cells; combined with 5-Fluorouracil, 5 days, FIG. 7N): Synergistic
Effect of combination (MIA-PaCa2 cancer cells; combined with Abemaciclib, 5 days, MIA-PaCa2, FIG. 7H): Synergistic
Effect of combination (MIA-PaCa2 cancer cells; combined with Adavosertib, 5 days, MIA-PaCa2, FIG. 7R): Synergistic
Effect of combination (MIA-PaCa2 cancer cells; [3]): Synergistic
Effect of combination (MIA-PaCa2 cancer cells; combined with Colchicine, 5 days, MIA-PaCa2, FIG. 7Q): Synergistic
Effect of combination (MIA-PaCa2 cancer cells; [4]): Synergistic
Effect of combination (MIA-PaCa2 cancer cells; combined with Everolimus, 5 days, MIA-PaCa2, FIG. 7E): Additive
Effect of combination (MIA-PaCa2 cancer cells; combined with Gemcitabine, 5 days, MIA-PaCa2, FIG. 7A): antagonistic response; also recorded: Antagonistic/Additive
Effect of combination (MIA-PaCa2 cancer cells; combined with Hydralazine, no figure): Antagonistic/Additive
Effect of combination (MIA-PaCa2 cancer cells; combined with Irinotecan, 5 days, MIA-PaCa2, FIG. 7C): Additive
Effect of combination (MIA-PaCa2 cancer cells; combined with Metformin, no figure): Additive
Effect of combination (MIA-PaCa2 cancer cells; combined with Methotrexate, 5 days, MIA-PaCa2, FIG. 7B): Additive
Effect of combination (MIA-PaCa2 cancer cells; combined with Olaparib, 5 days, MIA-PaCa2, FIG. 7D): antagonistic response; also recorded: Antagonistic/Additive
Effect of combination (MIA-PaCa2 cancer cells; combined with Oxaliplatin, 5 days, MIA-PaCa2, FIG. 7G): Synergistic
Effect of combination (MIA-PaCa2 cancer cells; [5]): Synergistic
Effect of combination (MIA-PaCa2 cancer cells; combined with VE-821, 5 days, MIA-PaCa2, FIG. 7S): Synergistic

SMILES: CCN1/C(=C/C=C/C=C/c2oc3ccccc3[n+]2CC)Oc2ccccc21 [JAC-R2, 3′,3′-Diethyloxadicarbocyanine iodide]
Effect of combination (MIA-PaCa2 cancer cells; [3]): Synergistic
Effect of combination (MIA-PaCa2 cancer cells; [4]): Synergistic
Effect of combination (MIA-PaCa2 cancer cells; [5]): Synergistic

solubility at 30 min ([1]; aqueous with cosolvent or surfactant or cyclodextrin, 10% glycerol, read-out: Solubility of glycerol-containing formulations after 30 min incubation at 18° C., 10%): < 2000 µg/mL
solubility ([1]; aqueous with cosolvent or surfactant or cyclodextrin, 10% glycerol, read-out: Solubility of glycerol-containing formulations after overnight incubation at 18° C., 10%): < 2000 µg/mL
solubility at 30 min ([1]; aqueous with cosolvent or surfactant or cyclodextrin, 20% glycerol, read-out: Solubility of glycerol-containing formulations after 30 min incubation at 18° C., 20%): < 2000 µg/mL
solubility ([1]; aqueous with cosolvent or surfactant or cyclodextrin, 20% glycerol, read-out: Solubility of glycerol-containing formulations after overnight incubation at 18° C., 20%): < 2000 µg/mL
solubility at 30 min ([1]; aqueous with cosolvent or surfactant or cyclodextrin, 30% glycerol, read-out: Solubility of glycerol-containing formulations after 30 min incubation at 18° C., 30%): < 2000 µg/mL
solubility ([1]; aqueous with cosolvent or surfactant or cyclodextrin, 30% glycerol, read-out: Solubility of glycerol-containing formulations after overnight incubation at 18° C., 30%): < 2000 µg/mL
solubility at 30 min ([1]; aqueous with cosolvent or surfactant or cyclodextrin, 40% glycerol, read-out: Solubility of glycerol-containing formulations after 30 min incubation at 18° C., 40%): < 2000 µg/mL
solubility ([1]; aqueous with cosolvent or surfactant or cyclodextrin, 40% glycerol, read-out: Solubility of glycerol-containing formulations after overnight incubation at 18° C., 40%): < 2000 µg/mL
solubility at 30 min ([1]; aqueous with cosolvent or surfactant or cyclodextrin, 50% glycerol, read-out: Solubility of glycerol-containing formulations after 30 min incubation at 18° C., 50%): < 2000 µg/mL
solubility ([1]; aqueous with cosolvent or surfactant or cyclodextrin, 50% glycerol, read-out: Solubility of glycerol-containing formulations after overnight incubation at 18° C., 50%): < 2000 µg/mL
solubility at 30 min ([1]; 0% glycerol, read-out: Solubility of glycerol-containing formulations after 30 min incubation at 18° C., 0%): < 2000 µg/mL
solubility ([1]; 0% glycerol, read-out: Solubility of glycerol-containing formulations after overnight incubation at 18° C., 0%): < 2000 µg/mL
solubility at 30 s ([1]; aqueous with cosolvent or surfactant or cyclodextrin, 10% glycerol, read-out: Solubility of glycerol-containing formulations post vortexing, 10%): < 2000 µg/mL
solubility at 30 s ([1]; aqueous with cosolvent or surfactant or cyclodextrin, 20% glycerol, read-out: Solubility of glycerol-containing formulations post vortexing, 20%): < 2000 µg/mL
solubility at 30 s ([1]; aqueous with cosolvent or surfactant or cyclodextrin, 30% glycerol, read-out: Solubility of glycerol-containing formulations post vortexing, 30%): < 2000 µg/mL
solubility at 30 s ([1]; aqueous with cosolvent or surfactant or cyclodextrin, 40% glycerol, read-out: Solubility of glycerol-containing formulations post vortexing, 40%): < 2000 µg/mL
solubility at 30 s ([1]; aqueous with cosolvent or surfactant or cyclodextrin, 50% glycerol, read-out: Solubility of glycerol-containing formulations post vortexing, 50%): < 2000 µg/mL
solubility at 30 s ([1]; 0% glycerol, read-out: Solubility of glycerol-containing formulations post vortexing, 0%): < 2000 µg/mL
solubility at 30 min ([2]; BSA 40 mg/mL, read-out: Solubility of BSA-containing formulations after 30 min incubation at 18° C., 40 mg/mL): < 2000 µg/mL
solubility ([2]; BSA 40 mg/mL, read-out: Solubility of BSA-containing formulations after overnight incubation at 18° C., 40 mg/mL): < 2000 µg/mL
solubility at 30 min ([2]; BSA 60 mg/mL, read-out: Solubility of BSA-containing formulations after 30 min incubation at 18° C., 60 mg/mL): < 2000 µg/mL
solubility ([2]; BSA 60 mg/mL, read-out: Solubility of BSA-containing formulations after overnight incubation at 18° C., 60 mg/mL): < 2000 µg/mL
solubility at 30 min ([2]; BSA 80 mg/mL, read-out: Solubility of BSA-containing formulations after 30 min incubation at 18° C., 80 mg/mL): < 2000 µg/mL
solubility ([2]; BSA 80 mg/mL, read-out: Solubility of BSA-containing formulations after overnight incubation at 18° C., 80 mg/mL): < 2000 µg/mL
solubility at 30 min ([2]; BSA 100 mg/mL, read-out: Solubility of BSA-containing formulations after 30 min incubation at 18° C., 100 mg/mL): < 2000 µg/mL
solubility ([2]; BSA 100 mg/mL, read-out: Solubility of BSA-containing formulations after overnight incubation at 18° C., 100 mg/mL): < 2000 µg/mL
solubility at 30 s ([2]; BSA 40 mg/mL, read-out: Solubility of BSA-containing formulations post vortexing, 40 mg/mL): < 2000 µg/mL
solubility at 30 s ([2]; BSA 60 mg/mL, read-out: Solubility of BSA-containing formulations post vortexing, 60 mg/mL): < 2000 µg/mL
solubility at 30 s ([2]; BSA 80 mg/mL, read-out: Solubility of BSA-containing formulations post vortexing, 80 mg/mL): < 2000 µg/mL
solubility at 30 s ([2]; BSA 100 mg/mL, read-out: Solubility of BSA-containing formulations post vortexing, 100 mg/mL): < 2000 µg/mL
SMILES: CCN1/C(=C/C(C)=C/c2sc3ccccc3[n+]2CC)Sc2ccccc21 [JAC-B2.5, 3,3′-Diethyl-9-methylthiacarbocyanine iodide]
